Assay results reported in patent US20050165047A1, “Crystalline fumarate salts of 1-azabicyclo[2.2.2]oct substituted furo[2,3-c]pyridinyl carboxamide and compositions and preparations thereof” (Pfizer Inc, priority 2002, published 2005).

Experiment: Moisture sorption by DMSG on a controlled atmosphere microbalance
Type: physicochemical
Details: 25° C.
Description: The sorption of water by the solid lattice at a given relative humidity (RH) was measured by DMSG on a controlled atmosphere microbalance. Scans were carried out at 25° C. from 36% to 0% RH then ramped to 90% RH, and back down to 0% RH with a step size of 3% RH. A sample size of 8 to 14 mg was used. At each step, the balance was considered equilibrated when the mass change was less than 0.01 mg for five consecutive scans. There were 120 seconds between each scan.
Table 3 provides the moisture sorption data at 25° C. for Crystal Forms Ia and Ib of N-[1-azabicyclo[2.2.2]oct-3-yl]furo[2,3-c]pyridine-5-carboxamide.

## O=C(N[C@H]1CN2CCC1CC2)c1cc2ccoc2cn1 [Crystal Form Ia, N-[(3R)-1-azabicyclo[2.2.2]oct-3-yl]furo[2,3-c]pyridine-5-carboxamide]
RH 0%, 0-90% RH
  % dMass: 0.006227%
RH 0%, 36-0% RH
  % dMass: 0.008896%
RH 0.1%, 36-0% RH
  % dMass: 0.01245%
RH 0.36%, 36-0% RH
  % dMass: 0.01156%
RH 1.3%, 0-90% RH
  % dMass: 0.01512%
RH 1.6%, 36-0% RH
  % dMass: 0.02224%
RH 4.3%, 0-90% RH
  % dMass: 0.0258%
RH 4.74%, 36-0% RH
  % dMass: 0.0338%
RH 7.1%, 0-90% RH
  % dMass: 0.03736%
RH 7.98%, 36-0% RH
  % dMass: 0.0427%
RH 10.1%, 0-90% RH
  % dMass: 0.04448%
RH 10.8%, 36-0% RH
  % dMass: 0.04893%
RH 13.14%, 0-90% RH
  % dMass: 0.05249%
RH 13.96%, 36-0% RH
  % dMass: 0.05515%
RH 16.18%, 0-90% RH
  % dMass: 0.05782%
RH 17.1%, 36-0% RH
  % dMass: 0.06227%
RH 19.28%, 0-90% RH
  % dMass: 0.06227%
RH 19.94%, 36-0% RH
  % dMass: 0.07028%
RH 22.56%, 0-90% RH
  % dMass: 0.07295%
RH 23.18%, 36-0% RH
  % dMass: 0.07739%
RH 25.72%, 0-90% RH
  % dMass: 0.07828%
RH 28.68%, 0-90% RH
  % dMass: 0.08362%
RH 31.96%, 0-90% RH
  % dMass: 0.09341%
RH 35.18%, 0-90% RH
  % dMass: 0.1005%
RH 38.16%, 0-90% RH
  % dMass: 0.1076%
RH 41.24%, 0-90% RH
  % dMass: 0.1139%
RH 44.36%, 0-90% RH
  % dMass: 0.1165%
RH 47.56%, 0-90% RH
  % dMass: 0.1237%
RH 50.7%, 0-90% RH
  % dMass: 0.1334%
RH 53.86%, 0-90% RH
  % dMass: 0.1423%
RH 56.98%, 0-90% RH
  % dMass: 0.153%
RH 60.24%, 0-90% RH
  % dMass: 0.1646%
RH 63.9%, 0-90% RH
  % dMass: 0.1841%
RH 66.22%, 90-0% RH
  % dMass: 0.2046%
RH 66.66%, 0-90% RH
  % dMass: 0.2028%
RH 69.18%, 90-0% RH
  % dMass: 0.234%
RH 69.48%, 0-90% RH
  % dMass: 0.2251%
RH 72.34%, 90-0% RH
  % dMass: 0.3194%
RH 72.76%, 0-90% RH
  % dMass: 0.2562%
RH 75.26%, 90-0% RH
  % dMass: 0.3629%
RH 75.68%, 0-90% RH
  % dMass: 0.2936%
RH 77.96%, 90-0% RH
  % dMass: 0.4074%
RH 78.42%, 0-90% RH
  % dMass: 0.3371%
RH 80.84%, 90-0% RH
  % dMass: 0.4706%
RH 81.9%, 0-90% RH
  % dMass: 0.4163%
RH 83.48%, 90-0% RH
  % dMass: 0.5569%
RH 85.3%, 0-90% RH
  % dMass: 0.6218%
RH 85.94%, 90-0% RH
  % dMass: 0.693%
RH 88.38%, 0-90% RH
  % dMass: 0.9643%
RH 88.42%, 90-0% RH
  % dMass: 0.9723%
Above 74% relative humidity (RH)
  hygroscopicity compared with Crystal Form Ib: less hygroscopic

## O=C(N[C@H]1CN2CCC1CC2)c1cc2ccoc2cn1 [Crystal Form Ib, N-[(3R)-1-azabicyclo[2.2.2]oct-3-yl]furo[2,3-c]pyridine-5-carboxamide]
RH 0%, 36-0% RH
  % dMass: 0.1164%
RH 0.24%, 36-0% RH
  % dMass: 0.1225%
RH 2.62%, 0-90% RH
  % dMass: 0.1479%
RH 3.16%, 36-0% RH
  % dMass: 0.1628%
RH 5.84%, 0-90% RH
  % dMass: 0.1768%
RH 6.36%, 36-0% RH
  % dMass: 0.1899%
RH 8.98%, 0-90% RH
  % dMass: 0.2048%
RH 9.74%, 36-0% RH
  % dMass: 0.2197%
RH 12.2%, 0-90% RH
  % dMass: 0.2293%
RH 12.78%, 36-0% RH
  % dMass: 0.2451%
RH 15.34%, 0-90% RH
  % dMass: 0.2547%
RH 15.78%, 36-0% RH
  % dMass: 0.2678%
RH 18.46%, 0-90% RH
  % dMass: 0.281%
RH 18.8%, 36-0% RH
  % dMass: 0.2932%
RH 21.42%, 0-90% RH
  % dMass: 0.3037%
RH 21.88%, 36-0% RH
  % dMass: 0.3195%
RH 24.66%, 0-90% RH
  % dMass: 0.3335%
RH 25.1%, 36-0% RH
  % dMass: 0.3466%
RH 27.74%, 0-90% RH
  % dMass: 0.3606%
RH 28.16%, 36-0% RH
  % dMass: 0.3772%
RH 30.82%, 0-90% RH
  % dMass: 0.3921%
RH 33.92%, 0-90% RH
  % dMass: 0.4245%
RH 36.96%, 0-90% RH
  % dMass: 0.4586%
RH 39.9%, 0-90% RH
  % dMass: 0.491%
RH 43.18%, 0-90% RH
  % dMass: 0.5348%
RH 46.14%, 0-90% RH
  % dMass: 0.5768%
RH 49.16%, 0-90% RH
  % dMass: 0.6302%
RH 52.12%, 0-90% RH
  % dMass: 0.6871%
RH 55.1%, 0-90% RH
  % dMass: 0.7501%
RH 58.08%, 0-90% RH
  % dMass: 0.8219%
RH 61.08%, 0-90% RH
  % dMass: 0.9068%
RH 64.04%, 0-90% RH
  % dMass: 1.002%
RH 67.02%, 0-90% RH
  % dMass: 1.124%
RH 68.62%, 90-0% RH
  % dMass: 26.01%
RH 70%, 0-90% RH
  % dMass: 1.281%
RH 71.48%, 90-0% RH
  % dMass: 26.27%
RH 72.9%, 0-90% RH
  % dMass: 1.505%
RH 74.3%, 90-0% RH
  % dMass: 26.58%
RH 75.9%, 0-90% RH
  % dMass: 1.925%
RH 77.1%, 90-0% RH
  % dMass: 26.92%
RH 79.2%, 0-90% RH
  % dMass: 26.93%
RH 79.88%, 90-0% RH
  % dMass: 27.36%
RH 82%, 0-90% RH
  % dMass: 27.4%
RH 82.5%, 90-0% RH
  % dMass: 28%
RH 85.04%, 0-90% RH
  % dMass: 28.18%
RH 85.12%, 90-0% RH
  % dMass: 30.2%
RH 87.82%, 0-90% RH
  % dMass: 30.29%
RH 87.9%, 90-0% RH
  % dMass: 32.21%
RH 90.7%, 0-90% RH
  % dMass: 38.78%
RH 90.7%, 90-0% RH
  % dMass: 38.8%
